Entries after “also recorded” stand apart in the source; their conditions may differ.
Key:
[1] = tested on: doublecortin-positive cells in the hippocampus; assay: Histology: doublecortin (DCX) positive cells in hippocampus of aged mice; type: in vivo, C57Bl/6 mice; conditions: 18-month-old mice; four-week subcutaneous dosing by pump, versus IgG control
Excerpt: (§1) Mice were taken down on the day following the end of behavior testing. Anesthesia was induced by 2,2,2-tribromoethanol and mice were subsequently perfused with 0.9% saline trans-cardially. The brains were dissected and cut sagitally in two even halves. One half was snap frozen for later use in dry ice, and the other was fixed in 4% paraformaldehyde in PBS for use in immunohistochemistry. After two days of fixation, the hemibrains were transferred to a 30% sucrose in PBS solution and changed after two days. Hemibrains were sectioned at 30 um on a microtome at −22° C. Brain sections were stored in cryoprotectant media at −20° C. until needed for staining. Blocking was done on free floating sections in the appropriate serum at 10% serum in PBST 0.5%. Primary antibodies were incubated overnight at 4 C. For light microscopy, the following antibodies were used in the given concentrations: DCX, 1:200, Santa Cruz BioTech, CD68, 1:1000. AbD Serotec. Secondary biotinylated antibodies were applied the next day at a concentration of 1:300. Staining visualization was achieved by reaction with the ABC kit (Vector) and diaminobenzidine (Sigma). Dehydration of the mounted slides was achieved using ethanol and xylene dips. Images were acquired on a Leica light microscope at 5× magnification. […]

[2] = tested on: CD68+ activated microglia; assay: CD68+ activated microglia after one dose of LPS; type: in vivo, C57 mice; conditions: 3-month-old mice; one dose LPS 10 mg/kg IP; 30 mg/kg BID oral gavage 18 days
Excerpt: as §1

[3] = tested on: twenty-four-month-old C57 mice; assay: Overnight fecal output, water and food intake in aged mice; type: in vivo; conditions: 4 weeks continuous infusion by osmotic pump
Procedure: Twenty-four-month-old C57 mice were treated for 4 weeks with continuous infusion of Compound 1 or vehicle by Alzet osmotic pump, which were implanted to continuously deliver the two treatments.
Treatment Groups: • Treatment Group 1, Old Controls: Aged C57BL/6 mice (n=15), aged 23 months, received infusion of vehicle by Alzet mini-pump, model 2002 (0.5 uL/hr), for four weeks with one replacement. • Treatment Group 2, Compound 1 (dose 2) in Old: Aged C57BL/6 mice (n=15), aged 23 months, received infusion of ˜50 mg/ml Compound 1 by Alzet mini-pump, model 2002 (0.5 uL/hr), for four weeks with one replacement.
Fecal output was measured by weighing the dry weight of fecal pellets overnight (FIG. 22). […] is a well-known symptom of Parkinson's disease. Water and food intake were measured over the same time period.

[4] = tested on: three-month-old C57 mice treated with LPS; assay: Y maze test in mice given daily LPS; type: in vivo; conditions: 3-month-old mice; daily LPS 0.5 mg/kg IP; 30 mg/kg PO BID, after 3 weeks
Procedure: A large Y-maze test assesses short-term memory of the familiarity of a specific context. Mice are brought to the experimental room for at least 30 min of acclimation to the experimental room conditions (dim lighting) prior to testing. For the initial training trial, the mouse is placed at the end of one arm of a large Y-maze designated “start arm” (arm length: 15 inches). The third arm of the maze is blocked off, allowing the mouse to explore two of the three arms freely (“start arm” and “familiar arm”) for 5 min. Each arm contains spatial cues. One hour later, the mouse is placed back into the maze in the “start arm” and allowed to explore all three arms with the third arm unblocked (“novel arm”). Movements in and out of each arm are tracked using automated tracking software (CleverSys). Testing is performed under dim lighting, and the apparatus is cleaned with 70% ethanol between trials.
Three-month-old C57 mice were given daily doses of lipopolysaccharide (LPS) 0.5 mg/kg IP to induce inflammation and treated with Compound 1 for up to 4 weeks. […]

Compound: Cc1cc(C(=O)N(C)C)cc(NC(=O)[C@H]2CCC(=O)N2C2CCN(Cc3ccc(Cl)c(C)c3)CC2)n1 [Compound 1]
- doublecortin-positive cells in the hippocampus [1]: increased the numbers of doublecortin-positive cells
- CD68+ immunoreactivity (activated microglia) in brain [2]: significantly decreased CD68+ immunoreactivity
- fecal output overnight [3]: significantly lower fecal output
- food intake overnight [3]: no differences in total food intake
- water intake overnight [3]: significantly higher water intake; also recorded: drank significantly more water
- Y maze preference for the novel arm [4]: showed a significant preference for the novel arm
